Tests used:
Format in all cases: in vivo
[1] = test system: velvetleaf (Abutilon theophrasti); assay: Test B pre-/postemergence plant response
Procedure, shortened: (§1)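 Response scores were assigned visually after 13 to 15 days in a greenhouse, comparing treated pots with controls on a 0–100 scale where 100 denotes complete control. Preemergence treatments went onto freshly seeded loam/sand soil; postemergence treatments onto plants 2 to 18 cm tall.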

wild oat (Avena fatua) = assay: Test B pre-/postemergence plant response
Procedure, shortened: as §1

[2] = test system: lambsquarters (Chenopodium album); assay: Test B pre-/postemergence plant response
Procedure, shortened: as §1

[3] = test system: blackgrass (Alopecurus myosuroides); assay: Test B pre-/postemergence plant response
Procedure, shortened: as §1

[4] = test system: bermudagrass (Cynodon dactylon); assay: Test B pre-/postemergence plant response
Procedure, shortened: as §1

[5] = test system: Surinam grass (Brachiaria decumbens); assay: Test B pre-/postemergence plant response
Procedure, shortened: as §1

corn (Zea mays) = assay: Test B pre-/postemergence plant response
Procedure, shortened: as §1

soybean (Glycine max) = assay: Test B pre-/postemergence plant response
Procedure, shortened: as §1

[6] = test system: woolly cupgrass (Eriochloa villosa); assay: Test B pre-/postemergence plant response
Procedure, shortened: as §1

[7] = test system: large crabgrass (Digitaria sanguinalis); assay: Test B pre-/postemergence plant response
Procedure, shortened: as §1

[8] = test system: yellow nutsedge (Cyperus esculentus); assay: Test B pre-/postemergence plant response
Procedure, shortened: as §1

[9] = test system: Italian ryegrass (Lolium multiflorum); assay: Test B pre-/postemergence plant response
Procedure, shortened: as §1

[10] = test system: ragweed (common ragweed, Ambrosia elatior); assay: Test B pre-/postemergence plant response
Procedure, shortened: as §1

[11] = test system: johnsongrass (Sorghum halepense); assay: Test B pre-/postemergence plant response
Procedure, shortened: as §1

[12] = test system: canarygrass (Phalaris minor); assay: Test B postemergence plant response
Procedure, shortened: (§2)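 Plants at the 1- to 4-leaf stage (2 to 18 cm tall), grown in pots of peat moss/vermiculite medium with wetting agent and starter nutrients, received postemergence applications of test chemicals. After 13 to 15 days in a greenhouse, injury was rated visually against untreated controls on a 0 (no effect) to 100 (complete control) scale.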

[13] = test system: windgrass (Apera spica-venti); assay: Test B postemergence plant response
Procedure, shortened: as §2

[14] = test system: chickweed (Stellaria media); assay: Test B postemergence plant response
Procedure, shortened: as §2

[15] = test system: winter barley (Hordeum vulgare); assay: Test B postemergence plant response
Procedure, shortened: as §2

[16] = 31 g ai/ha, postemergence, scale 0 to 100, 0 is no effect, 100 is complete control
[17] = 62 g ai/ha, postemergence, 0 is no effect, 100 is complete control, 13 to 15 days
[18] = Postemergence, 125 g ai/ha, visual rating after 13 to 15 days, scale 0 (no effect) to 100 (complete control)
[19] = Postemergence, 250 g ai/ha, scale 0 to 100 (0 no effect, 100 complete control)

O=C1CCCC(O)=C1C(=O)c1cnc(-c2ccc(Br)cc2)n(-c2ccccc2)c1=O [Compound 70]
30: Plant response rating, Blackgrass [3, 16] | Barley plant response rating (0 to 100 scale) [15, 17]
15: Plant response rating, Corn (corn (Zea mays); [16]) | Nutsedge, Yellow plant response rating (0 to 100 scale) [8, 17]
55: Plant response rating, Oat, Wild (wild oat (Avena fatua); [16])
95: Plant response rating, Oat, Wild (wild oat (Avena fatua); [19]) | Plant response rating, Bermudagrass [4, 18] | Plant response rating, Surinam Grass [5, 18] | Plant response rating, Soybean (soybean (Glycine max); [18]) | Plant response rating, Crabgrass, Large [7, 18]
10: Plant response rating, Nutsedge, Yellow [8, 16] | Plant response rating, Ryegrass, Italian [9, 16] | Ryegrass, Italian plant response rating (0 to 100 scale) [9, 17] | Plant response rating, Barley [15, 16]
80: Velvetleaf plant response rating (0 to 100 scale) [1, 17] | Plant response rating, Crabgrass, Large [7, 16] | Plant response rating, Ragweed [10, 19] | Plant response rating, Johnsongrass [11, 18] | Canarygrass plant response rating (0 to 100 scale) [12, 17] | Plant response rating, Windgrass [13, 16] | Plant response rating, Chickweed [14, 16]
100: Plant response rating, Velvetleaf [1, 18] | Plant response rating, Velvetleaf [1, 19] | Plant response rating, Lambsquarters [2, 18] | Plant response rating, Lambsquarters [2, 19] | Plant response rating, Surinam Grass [5, 19] | Plant response rating, Crabgrass, Large [7, 19] | Plant response rating, Windgrass [13, 19] | Plant response rating, Chickweed [14, 19]
45: Plant response rating, Cupgrass, Woolly [6, 16]
40: Plant response rating, Nutsedge, Yellow [8, 18]
98: Lambsquarters plant response rating (0 to 100 scale) [2, 17] | Plant response rating, Bermudagrass [4, 19] | Plant response rating, Soybean (soybean (Glycine max); [19]) | Plant response rating, Johnsongrass [11, 19] | Plant response rating, Canarygrass [12, 19] | Plant response rating, Chickweed [14, 18]
90: Plant response rating, Oat, Wild (wild oat (Avena fatua); [18]) | Plant response rating, Cupgrass, Woolly [6, 18] | Plant response rating, Cupgrass, Woolly [6, 19] | Crabgrass, Large plant response rating (0 to 100 scale) [7, 17] | Plant response rating, Windgrass [13, 18] | Chickweed plant response rating (0 to 100 scale) [14, 17] | Plant response rating, Barley [15, 18] | Plant response rating, Barley [15, 19]
35: Blackgrass plant response rating (0 to 100 scale) [3, 17] | Plant response rating, Blackgrass [3, 18] | Corn plant response rating (0 to 100 scale) (corn (Zea mays); [17])
85: Plant response rating, Lambsquarters [2, 16] | Bermudagrass plant response rating (0 to 100 scale) [4, 17] | Plant response rating, Canarygrass [12, 18] | Windgrass plant response rating (0 to 100 scale) [13, 17]
75: Plant response rating, Velvetleaf [1, 16] | Plant response rating, Bermudagrass [4, 16] | Plant response rating, Corn (corn (Zea mays); [19]) | Plant response rating, Soybean (soybean (Glycine max); [16]) | Soybean plant response rating (0 to 100 scale) (soybean (Glycine max); [17]) | Plant response rating, Ragweed [10, 18]
65: Plant response rating, Surinam Grass [5, 16] | Surinam Grass plant response rating (0 to 100 scale) [5, 17] | Cupgrass, Woolly plant response rating (0 to 100 scale) [6, 17] | Plant response rating, Johnsongrass [11, 16]
60: Plant response rating, Corn (corn (Zea mays); [18]) | Plant response rating, Nutsedge, Yellow [8, 19] | Plant response rating, Ragweed [10, 16]
70: Oat, Wild plant response rating (0 to 100 scale) (wild oat (Avena fatua); [17]) | Plant response rating, Ryegrass, Italian [9, 19] | Ragweed plant response rating (0 to 100 scale) [10, 17] | Johnsongrass plant response rating (0 to 100 scale) [11, 17]
50: Plant response rating, Blackgrass [3, 19] | Plant response rating, Ryegrass, Italian [9, 18] | Plant response rating, Canarygrass [12, 16]

From patent US8952024B2, “Herbicidal pyrimidone derivatives” (E I du Pont de Nemours and Company, priority 2009, dated 2015)
